In patent US20230285374A1, “THERAPEUTIC METHODS USING VADADUSTAT” (Akebia Therapeutics, Inc., priority 2019, published 2023):

System: adult patients with NDD-CKD and anemia, not previously treated with an ESA
Assay: Phase 3 ESA-untreated NDD-CKD (Correction) trial, vadadustat vs darbepoetin alfa
Type: in vivo, human
Conditions: Correction study
Procedure: Two global, Phase 3, randomized, open-label, active-controlled, sponsor-blind clinical trials were conducted to evaluate safety and efficacy of vadadustat (Compound 1) vs the ESA darbepoetin alfa in adult patients with NDD-CKD and anemia. Patients recruited into the ESA-untreated NDD-CKD trial (N=1761) had hemoglobin <10 g/dL and were not previously being treated with an ESA. Patients recruited into the ESA-treated NDD-CKD trial (N=1750) had hemoglobin ranges of 8-11 g/dL (US) or 9-12 g/dL (non-US) and were actively treated with an ESA for anemia associated with CKD. Trial periods in both trials included 1) correction/conversion (weeks 0-23); 2) maintenance (weeks 24-52); 3) long-term treatment (week 53 to end of treatment); and 4) safety follow-up (end-of-treatment to 4 weeks later). The primary safety endpoint was time to first adjudicated major adverse cardiovascular event, defined as all-cause mortality, non-fatal myocardial infarction or non-fatal stroke pooled across both trials. The primary efficacy endpoint in each trial was mean change in hemoglobin from baseline to primary evaluation period (weeks 24-36) comparing vadadustat vs darbepoetin alfa treatment arms. Demographics and baseline characteristics were similar among patients in both trials, and typical for a large proportion of the NDD-CKD population. These trials helped define the safety and efficacy of vadadustat, an oral hypoxia-inducible factor prolyl hydroxylase inhibitor for management of anemia associated with NDD-CKD.
Two randomized, Phase 3, open-label, active-controlled clinical trials were conducted to evaluate the safety and efficacy of oral vadadustat versus injectable darbepoetin alfa: Correction (previously ESA-untreated) and Conversion (previously ESA-treated). Target enrollment for each was approximately 1850 patients recruited at approximately 390 and 480 sites in North America, Latin America, Europe, and the Asia Pacific for the ESA-untreated NDD-CKD trial and the ESA-treated NDD-CKD trial, respectively.
Trial Populations. Each trial recruited adults (>18 years of age) with NDD-CKD (estimated glomerular filtration rate 60 mL/min/1.73 m^2). […] In addition to the hemoglobin entry criteria, all patients were required to have serum ferritin ≥100 ng/mL and transferrin saturation 20% at screening in order to be randomized. In the ESA-untreated NDD-CKD trial, ESA use was permitted during screening, as per standard of care; however, patients were excluded if they received any ESA within 8 weeks of randomization. In the ESA-treated NDD-CKD trial, patients were actively maintained on ESA therapy, with at least one dose received within 6 weeks before or during screening. […]

## O=C(O)CNC(=O)c1ncc(-c2cccc(Cl)c2)cc1O [Compound 1, Vadadustat]
Week 24 to week 36
  mean (SD) Hb level: 10.39 (0.99) g/dL
Week 40 to week 52
  mean (SD) Hb level: 10.48 (1.05) g/dL
Weeks 24 to 36, non-inferiority margin −0.75 g/dL
  least square mean difference in Hb (vadadustat vs darbepoetin alfa): 0.05 g/dL
Weeks 40 to 52
  least square mean difference in Hb (vadadustat vs darbepoetin alfa): 0.04 g/dL
